Columns and labels:
[1] = single dose toxicity and pharmacokinetics, monkey; type: in vivo, Cynomolgus monkeys; details: for AUC(0-inf) / Cmax: plasma, single i.v. 50 mg/kg (NOAEL); for AUC∞ Ratio to Phase I / Cmax Ratio to Phase I / Cmax Ratio to Phase II: single i.v. 50 mg/kg; for AUC∞ Ratio to Phase I / Cmax Ratio to Phase I: vs human 150 mg Phase I; for Cmax Ratio to Phase II: vs human 150 mg Phase II
Method: (§1) The pharmacokinetics of dexanabinol of high enantiomeric purity formulated in CREMOPHOR EL®:ethanol as described in Example 4 were investigated in rats, rabbits, and monkeys following intravenous administration of single doses, and 14 and 28 days of repeated dosing. Human pharmacokinetics was studied during Phase I and Phase II clinical studies. Dexanabinol used in the pharmacokinetic studies was formulated as drug concentrates of 50 and 100 mg/ml and diluted with sterile 0.9% NaCl solution prior to intravenous (i.v.) administration to the desired final doses. Determination of dexanabinol concentrations in plasma and brain extracts was carried out using a validated Gas Chromatography-Mass Spectra (GC-MS) assay following solid phase extraction of the drug and derivatization. The limit of quantitation of the assay is 0.1 ng/ml.
(§2) Pharmacokinetic parameters were estimated by a non-compartmental method using WinNonlin Professional version 3.2 (Pharsight Corp., Mountain View, Calif.). The maximum plasma concentration (Cmax), when the drug is administered by infusion, is the concentration at the end of infusion. The Cmax following intravenous bolus administration is the value estimated by the software to be the concentration at t=0. The terminal slope (X) was estimated by linear regression through the last time points and used to calculate the terminal half-life (t1/2) from the following equation: t1/2=0.693/λ The area under the curve from time of dosing through the last time point (AUCz) was calculated by the linear trapezoid method. The AUC extrapolated to infinity (AUC∞) was calculated from the following equation: AUC∞=AUCz+Cz/λ where Cz is the concentration at the last time point predicted by the linear regression. AUC∞ was normalized for dose (mg/kg) and presented as AUC∞/Dose. Mean residence time (MRT), when the drug is administered by infusion is described by the following equation: MRT=(AUMC/AUC)−(TI)/2 Mean residence time after i.v. bolus administration is described by the following equation: MRT=(AUMC/AUC) where AUMC is the area under the first moment curve and TI is the length of infusion. Plasma clearance (CL), and the apparent volume of distribution at steady state (Vss) were calculated from the following equations: CL=Dose/AUC∞ Vss=MRT×CL
Table 6 summarizes the maximum plasma concentration (Cmax) and the area under the plasma concentration versus time curve (AUC) observed at the NOAEL doses cited above, as well as the animal to human exposure ratios (ER) for dexanabinol of high enantiomeric purity, expressed as the ratio of the pharmacokinetic (PK) parameter to that observed for a 150 mg dose in a Phase I study in human volunteers and in Phase II study in patients suffering from severe traumatic brain injury (TBI).

[2] = 28-day multiple dose study, monkey; type: in vivo, monkeys; details: for AUC(0-inf) / Cmax: plasma, 25 mg/kg i.v. daily, final dose Day 28 (NOAEL); for AUC∞ Ratio to Phase I / Cmax Ratio to Phase I / AUC∞ Ratio to Phase II / Cmax Ratio to Phase II: 25 mg/kg Day 28; for AUC∞ Ratio to Phase I / Cmax Ratio to Phase I: vs human 150 mg Phase I; for AUC∞ Ratio to Phase II / Cmax Ratio to Phase II: vs human 150 mg Phase II
Method: as §1, §2
In 14-day multiple dose pharmacokinetic studies, the NOAEL was 15 mg/kg/day in rats and 25 mg/kg/day in rabbits. In a 28-day study in monkeys the NOAEL was 25 mg/kg/day. Cmax and AUC observed following the last dose at the NOAEL in the multiple dose toxicity studies and the ratios of these values to those observed in the Phase I and II studies for the 150 mg dose are shown in Table 7.

[3] = plasma and brain concentrations after bolus i.v. 4 mg/kg; type: in vivo, Sprague Dawley rats
Method: as §1
Brain pharmacokinetic parameters in animal studies were estimated by non-compartmental methods similar to those used for plasma data with the addition of an estimate of the time of maximum concentration (Tmax) which was assumed to be zero for the plasma data. Cmax is the concentration corresponding to Tmax. AUCz and AUC∞ were calculated as described above. Kp, brain-to-plasma partition coefficient, was determined by means of the area method and using the equation: Kp=AUC∞ brain/AUC∞ plasma […]

[4] = both sexes, cynomolgus monkey, iv, monkey male & female
[5] = cynomolgus monkey, iv, monkey female
[6] = cynomolgus monkey, iv, monkey male
[7] = both sexes, iv, monkey male & female

CCCCCCC(C)(C)c1cc(O)c2c(c1)OC(C)(C)[C@H]1CC=C(CO)C[C@H]21 [dexanabinol, 1,1-dimethylheptyl-(3S,4S)-7-hydroxy-Δ^6-tetrahydrocannabinol]
AUC(0-inf) [1, 4]: 127 µg·h/mL | Cmax [1, 4]: 171 µg/mL | NOAEL ([1]; cynomolgus monkey, in vivo, iv, single dose i.v., read-out: no observed adverse effect level (NOAEL)): 50 mg/kg | AUC(0-inf) [1, 5]: 136 µg·h/mL | Cmax [1, 5]: 175 µg/mL | AUC(0-inf) [1, 6]: 117 µg·h/mL | Cmax [1, 6]: 167 µg/mL | AUC∞ Ratio to Phase I ([1]; monkey female): 42.4 | Cmax Ratio to Phase I ([1]; monkey female): 35.0 | Cmax Ratio to Phase II ([1]; monkey female): 89.0 | AUC∞ Ratio to Phase I ([1]; monkey male & female): 39.5 | Cmax Ratio to Phase I ([1]; monkey male & female): 34.2 | Cmax Ratio to Phase II ([1]; monkey male & female): 86.9 | AUC∞ Ratio to Phase I ([1]; monkey male): 36.6 | Cmax Ratio to Phase I ([1]; monkey male): 33.4 | Cmax Ratio to Phase II ([1]; monkey male): 84.9 | AUC(0-inf) [2, 7]: 193 µg·h/mL | Cmax [2, 7]: 162 µg/mL | AUC∞ Ratio to Phase I ([2]; monkey female): 55.5 | Cmax Ratio to Phase I ([2]; monkey female): 32.2 | AUC∞ Ratio to Phase II ([2]; monkey female): 120.0 | Cmax Ratio to Phase II ([2]; monkey female): 81.9 | AUC∞ Ratio to Phase I ([2]; monkey male & female): 60.2 | Cmax Ratio to Phase I ([2]; monkey male & female): 32.4 | AUC∞ Ratio to Phase II ([2]; monkey male & female): 130.2 | Cmax Ratio to Phase II ([2]; monkey male & female): 82.5 | AUC∞ Ratio to Phase I ([2]; monkey male): 64.9 | Cmax Ratio to Phase I ([2]; monkey male): 32.6 | AUC∞ Ratio to Phase II ([2]; monkey male): 140.4 | Cmax Ratio to Phase II ([2]; monkey male): 83.0 | NOAEL at 28 days ([2]; monkey, in vivo, iv, 28-day study i.v.): 25 mg/kg/day | AUC(0-inf) ([2]; iv, monkey female): 178 µg·h/mL | Cmax ([2]; iv, monkey female): 161 µg/mL | AUC(0-inf) ([2]; iv, monkey male): 208 µg·h/mL | Cmax ([2]; iv, monkey male): 163 µg/mL | time after injection at which brain concentrations equilibrated with plasma concentration ([3]; male and female averaged): about 30 minutes | differences between genders in some plasma pharmacokinetic parameters ([3]; plasma): 2-3 fold

Source: patent publication US20070060636A1, “High enantiomeric purity dexanabinol for pharmaceutical compositions” (priority 2002, published 2007)
